We go through three compounds from article PMC8173716 (Nature nanotechnology, 2020).

Assay [1] concerns NE. Particulars: cited from earlier work.
Assay [2] has as its system NE. The experiment in a line: vABN breath test in PA01-inoculated mice treated with sivelestat. Format: in vivo, mouse. Particulars: sivelestat before vABN delivery.
Assay [3] concerns mouse NE. The experiment in a line: Inhibition of mouse NE cleavage of vABNs by sivelestat, in vitro. Format: biochemical.
Assay [4] deals with NE. The experiment in a line: vABN breath test in LPS-challenged mice given prophylactic A1AT. The format is in vivo, mouse (female C57BL/6N).
Assay [5] concerns NE. The experiment in a line: vABN breath test in WT and SERPINA1a-e knockout mice. Format: in vivo, mouse (male C57BL/6 WT and Serpina1a-e knockout). As to conditions: 1 mg prophylactic A1AT, LPS.
Assay [6] concerns NE in mouse lung lysates. As to conditions: cited from earlier work.
In assay [7] the test system is human NE. Particulars: cited from earlier work.

As for `CC(C)(C)C(=O)Oc1ccc(S(=O)(=O)Nc2ccccc2C(=O)NCC(=O)O)cc1` [sivelestat], the “specific inhibition of NE” value in assay [1] is given as “specifically inhibits NE”. Moreover, the “attenuation of breath signal in infected mice” value in assay [2] is reported as ~ 75%. In addition, in assay [3], the “inhibition of mouse NE cleavage of vABNs” value is listed as “mouse NE can be inhibited using sivelestat to prevent cleavage of vABNs”.
Turning to “A1AT: Alpha-1 antitrypsin, a protein inhibitor of NE”, the “neutrophil recruitment / anti-inflammatory effect” value in assay [1] is on record as “suppressed neutrophil recruitment, a well-documented anti-inflammatory effect of A1AT”. Besides, the “breath signal after LPS challenge” value in assay [4] (1-mg A1AT 1–2 days before LPS challenge, vs untreated LPS-challenged controls) is reported as “significantly reduce breath signal”; in assay [4] (1-mg A1AT 3 days before LPS challenge (D-3), vs untreated controls), “absence of significant difference”. Moreover, the “AUROC, untreated vs A1AT-treated” value came out at 0.97 in assay [4] (A1AT 1 day before LPS challenge (D-1)), 0.91 in assay [4] (A1AT 2 days before LPS challenge (D-2)) and 0.50 in assay [4] (A1AT 3 days before LPS challenge (D-3)). Further, the “correlation between breath signal and A1AT in the lungs (Pearson's r)” value in assay [4] (p = 0.0293) was −0.6018. Further, the “protection by day 3” value in assay [4] (single 1 mg AAT dose) is listed as “No protection is observed by day 3”. Further, in assay [5] (p < 0.05, n = 7–8), the “breath signal in A1AT-treated knockout mice vs untreated knockout mice” value was “significantly lower than that in untreated knockout mice”. Also, the “AUROC, A1AT-treated knockout vs WT with acute inflammation” value in assay [5] (p = 0.568) was found to be 0.60.
Consider Ac-Nle(O-Bzl)-Met(O)2-Oic-Abu-ACC, for which, in assay [6], the “binding in mouse lung lysates” value is reported as “bind specifically to NE in mouse lung lysates”. Further, the “selectivity for human NE” value in assay [7] is reported as “selectivity for human NE”. The “catalytic efficiency (kcat/Km)” value in assay [7] (fluorogenic ACC substrate) was 4.79e+07 M⁻¹ s⁻¹.
